From US20050267038A1, “Novel diphenylazetidinones, process for their preparation, medicaments comprising these compounds and their use” (Aventis Pharma Deutschland GmbH, priority 2000, published 2005)

Assays:
[1] = test system: cholesterol absorption; assay: Cholesterol absorption test: uptake of 14C-cholesterol by the liver; type: in vivo, mouse; conditions: dose at which the uptake of 14C-cholesterol by the liver is halved (50%), based on a control group; test substance given immediately prior to peroral test meal; liver after 24 h
Source text: Effect on Cholesterol Absorption +^3H-Taurocholic Acid Excretion Using Fecal Excrement of Mice, Rats or Hamsters
NMRI mice, Wistar rats, or Golden Syrian hamsters (in groups of n=4-6) are kept in metabolic cages, where they are fed with a standard diet (Altromin, Lage (Lippe)). The afternoon prior to the administration of the radioactive tracers (^14C-cholesterol), the feed is removed and the animals are adapted to grates.
Additionally, the animals are labeled s.c. with ^3H-TCA (taurocholic acid) (for example 1 μCi/mouse up to 5 μCi/rat) 24 hours prior to the peroral administration of the test meal (^14C-cholesterol in Intralipid® 20, Pharmacia-Upjohn).
Cholesterol absorption test: 0.25 ml/mouse Intralipid® (Pharmacia-Upjohn) ((spiked with 0.25 μCi of ^14C-cholesterol in 0.1 mg of cholesterol) is administered perorally by gavage.
Test substances are prepared separately in 0.5% methylcellulose (Sigma)/5% Solutol (BASF, Ludwigshafen) or a suitable vehicle.
The administration volume of the test substance is 0.5 ml/mouse. The test substance is administered immediately prior to the test meal (Intralipid labeled with ^14C-cholesterol) (cholesterol absorption test).
The feces are collected over a period of 24 h: fecal elimination of ^14C-cholesterol and ^3H-taurocholic acid (TCA) is determined after 24 hours.
The livers are removed and homogenized, and aliquots are incinerated in an oximate (Model 307, Packard) to determine the amount of ^14C-cholesterol which had been taken up/absorbed.
The amount of ^14C-cholesterol taken up by the liver is based on the administered dose. The ED50 values are interpolated from a dose-effect curve as the dose at which the uptake of ^14C-cholesterol by the liver is halved (50%), based on a control group.

[2] = Bioabsorption, Caco cell model; type: in vitro ADME; conditions: human, Caco-2; Caco cell model; read-out: Apparent partition coefficient Papp (according to Lit. Hilgers)
Source text: (§1) The bioabsorption of the compounds of the formula I can be examined using the Caco cell model (A. R. Hilgers et al., Caco-2 cell monolayers as a model for drug transport across the intestinal mucosa, Pharm. Res. 1990, 7, 902).
(§2) Below is a bioabsorption measurement for a reference compound: […]

[3] = test system: Caco-2 cell monolayers; assay: Bioabsorption, Caco cell model; type: in vitro ADME; conditions: estimated from Caco cell model
Source text: as §1, §2

Row | Papp [2] [×10⁻⁶ cm/s] | Estimated human bioabsorption [3] [%] | SMILES | ED50 (liver) [1] [mg/mouse]
1 |  |  | COc1ccc(C2C(CCC(O)c3ccc(F)cc3)C(=O)N2c2ccc(CNC(=O)CCCCCCCCCCCNC(=O)C(O)C(O)C(O)C(O)CO)cc2)cc1 (stereo not drawn) [III, N-4-[3-[3-(4-Fluorophenyl)-3-hydroxypropyl]-2-(4-methoxyphenyl)-4-oxoazetidin-1-yl]benzyl-12-(2,3,4,5,6-pentahydroxyhexanoylamino)dodecanamide] | 0.003
2 |  |  | COc1ccc(C2C(CCC(O)c3ccc(F)cc3)C(=O)N2c2ccc(CNC(C)=O)cc2)cc1 (stereo not drawn) [Example XX, N-{4-[3-[3-(4-Fluorophenyl)-3-hydroxypropyl]-2-(4-methoxyphenyl)-4-oxoazetidin-1-yl]benzyl}acetamide] | 0.03
3 |  |  | COc1ccc(C2C(CCC(O)c3ccc(F)cc3)C(=O)N2c2ccc(CNC(=O)CCCCN(Cc3ccccc3)CC(O)C(O)C(O)C(O)CO)cc2)cc1.O=C(O)C(F)(F)F (stereo not drawn) [Example XVIII, Benzyl-(4-{4-[3-[3-(4-fluorophenyl)-3-hydroxypropyl]-2-(4-methoxyphenyl)-4-oxoazetidin-1-yl]benzylcarbamoyl}butyl)-(2,3,4,5,6-pentahydroxyhexyl)ammonium trifluoroacetate] | 1.0
4 |  |  | O=C(COCCOCC(=O)NCc1ccc(C2C(CCC(O)c3ccc(F)cc3)C(=O)N2c2ccc(F)cc2)cc1)NCCOCCOCC(=O)C(O)C(O)C(O)C(O)CO (stereo not drawn) [XIII, N-(4-{1-(4-Fluorophenyl)-3-[3-(4-fluorophenyl)-3-hydroxypropyl]-4-oxoazetidin-2-yl}-benzyl)-2-[2-({2-[2-(3,4,5,6,7-pentahydroxy-2-oxoheptyloxy)ethoxy]-ethylcarbamoyl}-methoxy)ethoxy]acetamide] | 0.3
5 |  |  | C[N+](C)(C)CCCCC(NC(=O)OCC1c2ccccc2-c2ccccc21)C(=O)NCc1ccc(C2C(CCC(O)c3ccc(F)cc3)C(=O)N2c2ccc(F)cc2)cc1.[Cl-] (stereo not drawn) [Example XXI] | 1.0
6 |  |  | C[N+](C)(C)CCCCCOc1ccc(C2C(CCC(O)c3ccc(F)cc3)C(=O)N2c2ccc(F)cc2)cc1.[Br-] (stereo not drawn) [XXIV, [5-(4-{1-(4-Fluorophenyl)-3-[3-(4-fluorophenyl)-3-hydroxypropyl]-4-oxoazetidin-2-yl}phenoxy)pentyl]trimethylammonium bromide] | 0.3
7 |  |  | CN(CCCCOc1ccc(C2C(CCC(O)c3ccc(F)cc3)C(=O)N2c2ccc(F)cc2)cc1)CC(O)C(O)C(O)C(O)CO (stereo not drawn) [XXV, 1-(4-Fluorophenyl)-3-[3-(4-fluorophenyl)-3-hydroxypropyl]-4-(4-{4-[methyl-(2,3,4,5,6-pentahydroxyhexyl)amino]butoxy}phenyl)azetidin-2-one] | 0.3
8 |  |  | O=C(NCc1ccc(C2C(CCC(O)c3ccc(F)cc3)C(=O)N2c2ccc(F)cc2)cc1)C(O)C(O)C(O)C(O)CO (stereo not drawn) [Example II] | 0.1
9 | 4.88 | 100 | O=C1[C@H](CC[C@H](O)c2ccc(F)cc2)[C@@H](c2ccc(O)cc2)N1c1ccc(F)cc1 [Ezetimibe] | 
10 |  |  | CN(CCOCCOCCOc1ccc(C2C(CCC(O)c3ccc(F)cc3)C(=O)N2c2ccc(F)cc2)cc1)CC(O)C(O)C(O)C(O)CO (stereo not drawn) [Example XXX, 1-(4-Fluorophenyl)-3-[3-(4-fluorophenyl)-3-hydroxypropyl]-4-{4-[2-(2-{2-[methyl-(2,3,4,5,6-pentahydroxyhexyl)amino]ethoxy}ethoxy)ethoxy]phenyl}azetidin-2-one] | 0.1
11 |  |  | C[N+](C)(C)CCCC(=O)NCc1ccc(C2C(CCC(O)c3ccc(F)cc3)C(=O)N2c2ccc(F)cc2)cc1.O=C([O-])C(F)(F)F (stereo not drawn) [Example XV, [3-(4-{1-(4-Fluorophenyl)-3-[3-(4-fluorophenyl)-3-hydroxypropyl]-4-oxoazetidin-2-yl}benzylcarbamoyl)propyl]trimethylammonium trifluoroacetate] | 0.01
